Legend:
SF-539 [1] = test: Induction of cell cycle arrest in human SF539 cells expressing p53 gene assessed as accumulation at subG1 phase at 5 uM after 24hrs by FACS analysis; type: functional
OVCAR-8 [2] = test: Induction of cell cycle arrest in p53 deficient human OVCAR8 cells assessed as residual DNA synthesis at 10 uM after 24 hrs by FACS analysis; type: functional
SF-268 [3] = test: Antiproliferative activity against p53 deficient human SF268 cells after 72 hrs; type: functional, cell-based; settings: SF-268, 72 h
A2780 [4] = test: Induction of cell cycle arrest in human A2780 cells expressing p53 gene assessed as accumulation at subG1 phase at 10 uM after 24 hrs by FACS analysis; type: functional
HeLa [5] = test: Inhibition of DNA replication in human HeLa cells assessed as interorigin distance between homogenous DNA fibers at 2 uM after 2 hrs by immunofluorescence assay; type: functional
COLO 205 [6] = test: Induction of cell cycle arrest in p53 deficient human COLO205 cells assessed as residual DNA synthesis at 5 uM after 24 hrs by FACS analysis; type: functional
SF-268 [7] = test: Induction of cell cycle arrest in p53 deficient human SF268 cells assessed as accumulation at subG1 phase at 10 uM after 24 hrs FACS analysis; type: functional
HeLa [8] = test: Antiproliferative activity against p53 deficient human HeLa cells after 72 hrs; type: functional, cell-based
OVCAR-8 [9] = test: Induction of cell cycle arrest in p53 deficient human OVCAR8 cells assessed as accumulation at subG1 phase at 5 uM after 24hrs by FACS analysis; type: functional
A2780 [10] = test: Induction of cell cycle arrest in human A2780 cells expressing p53 gene assessed as residual DNA synthesis at 5 uM after 24 hrs by FACS analysis; type: functional
COLO 205 [11] = test: Induction of cell cycle arrest in p53 deficient human COLO205 cells assessed as accumulation at subG1 phase at 10 uM after 24hrs by FACS analysis; type: functional
[12] = Inhibition of Ck2
[13] = Antiproliferative activity against p53 deficient human HCT116/E6 cells after 72 hrs by proliferative assay; type: functional, cell-based; settings: HCT116-E6, 72 h
SF-268 [14] = test: Induction of cell cycle arrest in p53 deficient human SF268 cells assessed as residual DNA synthesis at 5 uM after 24 hrs FACS analysis; type: functional
HeLa [15] = test: Inhibition of DNA replication in human HeLa cells assessed as increase in replication fork speed per min at 2 uM after 6 hrs by immunofluorescence assay; type: functional
[16] = Inhibition of PDGFR
[17] = target: Serine/threonine-protein kinase TAO3 (Homo sapiens, UniProt Q9H2K8); test: Inhibition of TAO3
SF-539 [18] = test: Induction of cell cycle arrest in human SF539 cells expressing p53 gene assessed as residual DNA synthesis at 10 uM after 24 hrs by FACS analysis; type: functional
HeLa [19] = test: Inhibition of DNA replication in human HeLa cells assessed as interorigin distance between homogenous DNA fibers at 5 uM after 2 hrs by immunofluorescence assay; type: functional
NHDF = test: Induction of cell cycle arrest in thymidine deficient NHDF assessed as DNA synthesis in S-phase at 5 uM after 2hrs FACS analysis; type: cell-based; settings: human
A2780 [20] = test: Induction of cell cycle arrest in human A2780 cells expressing p53 gene assessed as residual DNA synthesis at 10 uM after 24 hrs by FACS analysis; type: functional
HeLa [21] = test: Induction of cell cycle arrest in p53 deficient human HeLa cells assessed as residual DNA synthesis at 10 uM after 24 hrs by FACS analysis; type: functional
HeLa [22] = test: Inhibition of DNA replication in human HeLa cells assessed as interorigin distance between homogenous DNA fibers at 2 uM after 6 hrs by immunofluorescence assay; type: functional
MCF7 = test: Induction of cell cycle arrest in human MCF7 cells expressing p53 gene assessed as accumulation at subG1 phase at 5 uM after 24hrs by FACS analysis; type: functional
Jurkat = test: Induction of cell cycle arrest in p53 deficient human Jurkat cells assessed as residual DNA synthesis at 10 uM after 24 hrs by FACS analysis; type: functional
SF-539 [23] = test: Induction of cell cycle arrest in human SF539 cells expressing p53 gene assessed as accumulation at subG1 phase at 10 uM after 24 hrs by FACS analysis; type: functional
SW480 = test: Induction of cell cycle arrest in p53 deficient human SW480 cells assessed as accumulation at subG1 phase at 5 uM after 24hrs by FACS analysis; type: functional
[24] = Clearance in rat carrying DMBA-induced mammary carcinoma at 10 mg/kg, iv after 10 hrs; type: ADME, organism-based; set-up: dose 10 mg/kg, route intravenous; settings: in vivo
[25] = target: Serine/threonine-protein kinase Nek6 (Homo sapiens, UniProt Q9HC98); test: Inhibition of Nek6
HeLa [26] = test: Inhibition of DNA replication in human HeLa cells assessed as increase in replication fork speed per min at 5 uM after 4 hrs by immunofluorescence assay; type: functional
HCT-116 [27] = test: Induction of cell cycle arrest in human HCT116 cells expressing p53 gene assessed as accumulation at subG1 phase at 10 uM after 24 hrs by FACS analysis; type: functional
[28] = Induction of cell cycle arrest in NHDF assessed as accumulation at subG1 phase at 5 uM after 24hrs by propidium-iodine staining based FACS analysis in presence of p53 specific siRNA; settings: human
HeLa [29] = test: Inhibition of DNA replication in human HeLa cells assessed as interorigin distance between homogenous DNA fibers at 5 uM after 4 hrs by immunofluorescence assay; type: functional
K562 [30] = test: Induction of cell cycle arrest in p53 deficient human K562 cells assessed as accumulation at subG1 phase at 10 uM after 24hrs by FACS analysis; type: functional
OVCAR-8 [31] = test: Antiproliferative activity against p53 deficient human OVCAR8 cells after 72 hrs by proliferative assay; type: functional, cell-based; settings: OVCAR-8, 72 h
U2OS [32] = test: Antiproliferative activity against human U2OS cells expressing p53 gene after 72 hrs by proliferative assay; type: functional, cell-based
U2OS [33] = test: Induction of cell cycle arrest in human U2OS cells expressing p53 gene assessed as residual DNA synthesis at 10 uM after 24 hrs by FACS analysis; type: functional
HeLa [34] = test: Inhibition of DNA synthesis in human HeLa cells assessed as Brd-U uptake at 5 uM after 9 hrs by FACS analysis; type: functional; set-up: scale not given: the % may be the effect or the level left
HCT-116 [35] = test: Induction of cell cycle arrest in human HCT116 cells expressing p53 gene assessed as residual DNA synthesis at 10 uM after 24 hrs by FACS analysis; type: functional
SF-268 [36] = test: Induction of cell cycle arrest in p53 deficient human SF268 cells assessed as residual DNA synthesis at 10 uM after 24 hrs by FACS analysis; type: functional
A2780 [37] = test: Induction of cell cycle arrest in human A2780 cells expressing p53 gene assessed as accumulation at subG1 phase at 5 uM after 24hrs by FACS analysis; type: functional
K562 [38] = test: Induction of cell cycle arrest in p53 deficient human K562 cells assessed as residual DNA synthesis at 5 uM after 24hrs by FACS analysis; type: functional

Chain of Serine/threonine-protein kinase Nek6 (Q9HC98 whole entry): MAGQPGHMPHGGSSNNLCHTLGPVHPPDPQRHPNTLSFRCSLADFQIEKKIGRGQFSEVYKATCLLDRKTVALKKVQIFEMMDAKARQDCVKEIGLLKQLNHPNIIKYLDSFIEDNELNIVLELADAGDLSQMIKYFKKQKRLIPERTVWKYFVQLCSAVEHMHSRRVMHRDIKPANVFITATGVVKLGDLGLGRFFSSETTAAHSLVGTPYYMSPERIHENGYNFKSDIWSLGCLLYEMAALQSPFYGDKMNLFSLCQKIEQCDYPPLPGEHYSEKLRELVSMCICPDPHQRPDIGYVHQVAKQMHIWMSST
Chain of Serine/threonine-protein kinase TAO3 (Q9H2K8 whole entry): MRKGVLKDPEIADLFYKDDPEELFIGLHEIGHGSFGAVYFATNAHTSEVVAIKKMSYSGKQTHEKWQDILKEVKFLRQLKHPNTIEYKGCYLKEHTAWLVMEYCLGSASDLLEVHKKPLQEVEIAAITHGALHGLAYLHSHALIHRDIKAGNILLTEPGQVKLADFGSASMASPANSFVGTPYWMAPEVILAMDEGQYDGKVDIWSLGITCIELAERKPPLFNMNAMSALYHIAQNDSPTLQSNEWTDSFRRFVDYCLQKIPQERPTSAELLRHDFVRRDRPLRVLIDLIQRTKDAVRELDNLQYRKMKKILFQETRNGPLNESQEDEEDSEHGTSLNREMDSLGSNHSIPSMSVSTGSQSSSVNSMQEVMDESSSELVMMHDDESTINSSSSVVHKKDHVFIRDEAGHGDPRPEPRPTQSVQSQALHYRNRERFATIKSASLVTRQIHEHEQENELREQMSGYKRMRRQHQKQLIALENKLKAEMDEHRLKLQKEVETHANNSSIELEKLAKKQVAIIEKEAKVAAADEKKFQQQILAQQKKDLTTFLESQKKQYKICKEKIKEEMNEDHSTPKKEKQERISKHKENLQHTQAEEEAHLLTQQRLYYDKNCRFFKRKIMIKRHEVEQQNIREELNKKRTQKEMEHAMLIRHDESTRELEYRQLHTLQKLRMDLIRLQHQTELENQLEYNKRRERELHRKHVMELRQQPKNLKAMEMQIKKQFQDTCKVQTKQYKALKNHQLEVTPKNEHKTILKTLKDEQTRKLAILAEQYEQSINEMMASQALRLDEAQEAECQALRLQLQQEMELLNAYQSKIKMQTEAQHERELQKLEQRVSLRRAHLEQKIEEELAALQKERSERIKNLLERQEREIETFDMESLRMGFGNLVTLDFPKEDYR

Question: Which Activity (SF-539 [1]) does the source give for `O=C1NCCc2[nH]c(-c3ccncc3)cc21` here?
Answer: 3%

Question: And the Activity (OVCAR-8 [2])?
Answer: <3%

Question: What about the IC50 (SF-268 [3]) of the same compound?
Answer: 860 nM

Question: And the Activity (A2780 [4])?
Answer: >20%

Question: And the Activity (HeLa [5])?
Answer: 225 kilobase

Question: And the Activity (COLO 205 [6])?
Answer: <3%

Question: What about the Activity (SF-268 [7]) of the same compound?
Answer: 3%

Question: And the IC50 (HeLa [8])?
Answer: 1830 nM

Question: And the Activity (OVCAR-8 [9])?
Answer: 3%

Question: And the Activity (A2780 [10])?
Answer: <3%

Question: And the Activity (COLO 205 [11])?
Answer: >20%

Question: And the IC50 [12]?
Answer: > 10000 nM

Question: And the IC50 [13]?
Answer: 1480 nM

Question: What about the Activity (SF-268 [14]) of the same compound?
Answer: <3%

Question: What about the Activity (HeLa [15]) of the same compound?
Answer: 1.81 kilobase

Question: And the IC50 [16]?
Answer: > 10000 nM

Question: What about the IC50 [17] of the same compound?
Answer: > 10000 nM

Question: And the Activity (SF-539 [18])?
Answer: <3%

Question: And the Activity (HeLa [19])?
Answer: 210 kilobase

Question: What about the Activity (NHDF) of the same compound?
Answer: Not Active

Question: What about the Activity (A2780 [20]) of the same compound?
Answer: <3%

Question: And the Activity (HeLa [21])?
Answer: <3%

Question: And the Activity (HeLa [22])?
Answer: 241 kilobase

Question: And the Activity (MCF7)?
Answer: 3%

Question: And the Activity (Jurkat)?
Answer: <3%

Question: And the Activity (SF-539 [23])?
Answer: 3%

Question: And the Activity (SW480)?
Answer: >20%

Question: And the clearance [24]?
Answer: 30 mL/min/kg

Question: And the IC50 [25]?
Answer: > 10000 nM

Question: What about the Activity (HeLa [26]) of the same compound?
Answer: 2.02 kilobase

Question: What about the Activity (HCT-116 [27]) of the same compound?
Answer: 3%

Question: What about the Activity [28] of the same compound?
Answer: 6.8%

Question: What about the Activity (HeLa [29]) of the same compound?
Answer: 288 kilobase

Question: What about the Activity (K562 [30]) of the same compound?
Answer: <3%

Question: And the IC50 (OVCAR-8 [31])?
Answer: 1560 nM

Question: What about the IC50 (U2OS [32]) of the same compound?
Answer: 1490 nM

Question: What about the Activity (U2OS [33]) of the same compound?
Answer: <3%

Question: And the Activity (HeLa [34])?
Answer: 9%

Question: What about the Activity (HCT-116 [35]) of the same compound?
Answer: <3%

Question: And the Activity (SF-268 [36])?
Answer: <3%

Question: And the Activity (A2780 [37])?
Answer: >20%

Question: And the Activity (K562 [38])?
Answer: 10%

— ChEMBL document CHEMBL1221210, “A Cdc7 kinase inhibitor restricts initiation of DNA replication and has antitumor activity” (Nat Chem Biol, 2008)
